Consider 15 molecules from patent US20240327421A1 (Marquette University, priority 2017, published 2024).

Usually IC50 stands for the concentration needed to halve the response being measured.

Data set [1] has as its target T1, ERα (Homo sapiens, UniProt P03372).
T1 construct: employs a full length and native ER (comprised of an ER LBD and an ER DBD)
T1 sequence (P03372 1-595): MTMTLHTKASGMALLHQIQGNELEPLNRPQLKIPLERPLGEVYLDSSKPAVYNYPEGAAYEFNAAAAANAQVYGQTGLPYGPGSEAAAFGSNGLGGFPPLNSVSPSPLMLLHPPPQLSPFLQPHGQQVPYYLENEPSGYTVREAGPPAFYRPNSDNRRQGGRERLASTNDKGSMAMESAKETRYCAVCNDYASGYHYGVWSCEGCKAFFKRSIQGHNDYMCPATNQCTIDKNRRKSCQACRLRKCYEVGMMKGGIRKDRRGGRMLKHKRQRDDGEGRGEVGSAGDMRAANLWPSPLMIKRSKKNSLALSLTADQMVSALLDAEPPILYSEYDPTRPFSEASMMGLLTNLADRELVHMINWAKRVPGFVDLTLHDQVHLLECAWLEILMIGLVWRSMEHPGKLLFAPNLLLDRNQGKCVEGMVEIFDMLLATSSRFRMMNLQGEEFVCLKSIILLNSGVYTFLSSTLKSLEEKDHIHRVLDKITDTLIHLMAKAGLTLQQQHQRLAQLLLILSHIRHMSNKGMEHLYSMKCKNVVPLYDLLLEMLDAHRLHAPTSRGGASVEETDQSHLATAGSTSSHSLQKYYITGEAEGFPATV
Description: Cell-based luciferase reporter assay, full length ERα, antagonist mode. (In general: In a reporter assay the amount or activity of a reporter protein is the signal.)

Data set [2] has as its target T1, ERα. Description: Cell-based luciferase reporter assay, full length ERα, agonist mode. Particulars: 22 h.
The target in data set [3] is T2, human ER Beta ligand-binding domain (LBD) (Homo sapiens, UniProt Q92731).
T2 construct: purchased Thermo Fisher Scientific
Put plainly: TR-FRET competitive binding assay, ERβ LBD. Particulars: displacement of fluorescent tracer from ERβ LBD. Background: Time-resolved FRET reads energy transfer from a long-lived donor to a nearby acceptor.

Data set [4] deals with ovariectomized mice. Put plainly: Peripheral tissue pathology (H&E of liver, kidney, heart). Type of data set: in vivo. Conditions: 24 h after single IP injection; 0.5 or 5 mg/kg ISP358-2, 0.05 mg/kg DPN. Here is the method: Assessment of Potential Peripheral Pathology. To assess possible toxicity of ISP358-2 treatment to peripheral organs, ovariectomized mice received a single intraperitoneal injection of vehicle or ISP358-2, and liver, kidney, and heart tissues were collected 24 hours later. […] Tissues were fixed in 10% formalin buffered solution for 24 hours. Twenty specimens were processed and analyzed. Each specimen contained three pieces of tissue. The tissues from each animal was transferred to a labeled cassette and processed on an automated tissue processor following standard procedures. The tissues were then embedded in paraffin wax. No specific orientation of the tissue was performed. Four-micron sections were cut from each paraffin block and placed onto a slide. The slides were then stained using hematoxylin and cosin (H&E) on an automated stainer (FIGS. 13A-13L). The slides were then examined by a pathologist (ACM) who is board certified in anatomical pathology by the American Board of Pathology. All specimens contained three tissue samples corresponding to liver, kidney, and heart. In some instances, portions of adjacent tissues were also present. […] For heart, the myocytes and coronary vessels were examined, (2) evidence of inflammation was evaluated including hepatitis, glomerulonephritis, interstitial nephritis, and myocarditis, and (3) evidence of ischemic changes was examined. […]

Where [5] appears, read: inhibition of estradiol-induced transcription, read-out: ERα antagon. IC50.
Setting [6] is: full length ERα, read-out: ERα agon. IC50.

Where “and” joins values, the source holds several entries; their conditions need not be identical. Identical values can stand only once.

T2 sequence (Q92731 264-498 limits assumed): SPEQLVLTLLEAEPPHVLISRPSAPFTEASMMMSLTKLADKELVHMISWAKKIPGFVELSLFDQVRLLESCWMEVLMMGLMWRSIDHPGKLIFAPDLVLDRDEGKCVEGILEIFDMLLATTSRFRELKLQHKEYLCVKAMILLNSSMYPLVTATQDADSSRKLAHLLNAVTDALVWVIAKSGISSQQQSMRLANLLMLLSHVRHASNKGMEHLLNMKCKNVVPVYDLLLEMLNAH

Turning to `CC1CCC(c2ccc(O)cc2)CC1` (mixture of isomers) [Compound 8, 4-(4-Methylcyclohexyl) phenol], the concentration for half-maximal inhibition (IC50) in data set [1] (setting [5]) and in data set [2] (setting [6]) was over 10 µM each time.
Turning to `OCC1CC=C(c2ccc(O)cc2)CC1` (racemic) [Compound 18, 4′-(Hydroxymethyl)-2′,3′,4′,5′-tetrahydro-[1,1′-biphenyl]-4-ol], the half-maximal inhibitory concentration (IC50) in data set [1] (setting [5]) is over 10 µM; in data set [2] (setting [6]), over 20 µM.
Molecule `OCC1(O)CCC(c2ccc(O)cc2)CC1` (single isomer, unassigned) [Compound 12, 4-(4-Hydroxy-4-(hydroxymethyl)cyclohexyl) phenol] registered an IC50 in data set [3] of 2.7 µM.
On to `OCC1CCC(c2ccc(O)cc2)CC1` (stereo not drawn) [15:16 (3:2), 4-(4-(Hydroxymethyl)cyclohexyl) phenol], for which the IC50 in data set [1] is over 10 µM; in data set [2] (ERα agon. IC50, full length ERα) it was over 100 µM.
`O=C1CCC(c2ccc(O)cc2)CC1` [Compound 1, 4-(4-hydroxyphenyl) cyclohexanone]: the IC50 in data set [3] is 19 µM.
Still for that read-out and setting: then `Oc1ccc([C@H]2CC[C@H](O)CC2)cc1` [Compound 2, trans-4-(4-Hydroxycyclohexyl) phenol], with 7.25 µM and 7.52 µM.
With `C[C@]1(O)CC[C@@H](c2ccc(O)cc2)CC1` [Compound 3, 4-(4-Hydroxy-4-methylcyclohexyl) phenol], in data set [3], the IC50 stood at 6.29 µM.
Turning to `ON=C1CCC(c2ccc(O)cc2)CC1` (stereo not drawn) [Compound 4, 4-(4-Hydroxyphenyl) cyclohexanone oxime], the IC50 in data set [3] was 1.57 µM.
Regarding `C=C1CCC(c2ccc(O)cc2)CC1` [Compound 7, 4-(4-Hydroxyphenyl) methylenecyclohexane], the half-maximal inhibitory concentration (IC50) in data set [1] (setting [5]) and in data set [2] (setting [6]) was over 10 µM in each case.
`C=C1CCC(c2ccc(O)c(C=O)c2)CC1` [Compound 9, 2-Hydroxy-5-(4-methylenecyclohexyl) benzaldehyde]: the IC50 in data set [3] stood at 1 µM.
In data set [3], `C=C1CCC(c2ccc(O)c(/C=N/O)c2)CC1` [Compound 10, 2-Hydroxy-5-(4-methylenecyclohexyl) benzaldehyde oxime] yielded a concentration for half-maximal inhibition (IC50) of 0.225 ± 0.094 µM.
In data set [3], `Oc1ccc([C@]23CC[C@H](CC2)CO3)cc1` [Compound 17, 1-(4-Hydroxyphenyl)-2-oxabicyclo [2.2.2] octane] gave an IC50 of 0.25 ± 0.056 µM.
In the case of `OCC=C1CCC(c2ccc(O)cc2)CC1` (stereo not drawn) [Compound 24, 4-(4′-Hydroxyphenyl) (2-hydroxyethylidene) cyclohexane], the concentration for half-maximal inhibition (IC50) in data set [3] came out at 0.676 µM; in data set [3] (listed as (±)-24), 0.68 ± 0.11 µM.
For the molecule `OCCC1CCC(c2ccc(O)cc2)CC1` (stereo not drawn) [Compound 25, 4-[4-(2-Hydroxyethyl)cyclohexyl] phenol], the IC50 in data set [1] (setting [5]) is over 10 µM; in data set [2] (setting [6]) it was over 50 µM.
Regarding `N#CC(Cc1ccc(O)cc1)c1ccc(O)cc1` (stereo not drawn) [DPN, 2,3-bis(4-hydroxyphenyl)-propionitrile, reference compound], the “histological abnormalities / peripheral toxicity in liver, kidney, heart” value in data set [4] was “Histological abnormalities were not detected”.
